Assay results as given in patent publication US20170342025A1, “ANTIMICROBIAL COMPOUNDS, COMPOSITIONS AND METHODS” (Swansea University, priority 2014, published 2017).
Read-outs that look alike come from different tables or passages of the source.

Key:
[1] = system: methicillin-resistant staphylococcus aureus (MRSA) strain MRSA-III (ST239); assay: MIC against MRSA strain MRSA-III (ST239); assay type: cell-based; conditions: read-out: MIC against MRSA-III
Protocol: (§1) Minimum Inhibitory Concentrations (MICs) for the compounds prepared were determined against Escherichia coli (strain JM109) and Staphylococcus aureus (strain 9518) using the protocols described by Andrews (J. Antimicrob. Chemother., 2001, 48, Suppl. S1, 5-16).
(§2) In addition, three compounds were tested against methicillin-resistant staphylococcus aureus (MRSA) strains MRSA-III (ST239) and EMRSA-15.

[2] = system: Escherichia coli (strain JM109); assay: MIC determination against Escherichia coli (Andrews protocol); assay type: cell-based; conditions: for MIC: Escherichia coli, read-out: MIC E. coli
Protocol: as §1

[3] = system: Staphylococcus aureus (strain 9518); assay: MIC determination against Staphylococcus aureus (Andrews protocol); assay type: cell-based; conditions: for MIC: Staphylococcus aureus, read-out: MIC S. aureus
Protocol: as §1

[4] = system: methicillin-resistant staphylococcus aureus (MRSA) strain EMRSA-15; assay: MIC against MRSA strain EMRSA-15; assay type: cell-based
Protocol: as §1, §2

[5] = Staphylococcus aureus strain 9518
[6] = second MRSA strain, text names EMRSA-15, read-out: MIC against MRSA-1

| Structure (SMILES) | MIC ([2]; Escherichia coli strain JM109) [µg/mL] | MIC [3, 5] [µg/mL] | melting point [°C] | also measured |
| --- | --- | --- | --- | --- |
| N=C(N)NCc1ccc(OCc2cccc(Cl)c2Cl)cc1.O=C(O)C(F)(F)F [Compound 19e, 1-(4-((2,3-dichlorobenzyl)oxy)benzyl)guanidine 2,2,2-trifluoroacetate] | 1 to 10 | 10 to 32 | – | MIC ([1]; MRSA-III (ST239)): 1 to 10 µg/mL; MIC [4, 6]: 1 to 10 µg/mL |
| N=C(N)NCc1cccc(OCc2cccc(C(F)(F)F)c2Cl)c1.O=C(O)C(F)(F)F [Compound 4L, 1-[(3-{[2-chloro-3-(trifluoromethyl)phenyl]methoxy}phenyl)methyl]guanidine 2,2,2-trifluoroacetate] | – | – | – | MIC ([1]; MRSA): 1 to 10 µg/mL; MIC [2]: 1 to 10 µg/mL; MIC [3]: 10 to 32 µg/mL; MIC ([4]; MRSA, read-out: MIC against MRSA-1): 1 to 10 µg/mL |
| Cl.N=C(N)N/N=C/c1cccc(OCc2ccc(C(F)(F)F)cc2)c1 [Compound 49d, (E)-Amino(2-(3-((4-(trifluoromethyl)benzyl)oxy)benzylidene) hydrazinyl) methaniminium chloride] | – | – | 176 to 179 | MIC E. coli ([2]; Escherichia coli strain JM109): +++ (MIC 1-10 μg/mL); MIC S. aureus [3, 5]: ++ (MIC 10-32 μg/mL) |
| CC(=O)O.N=C(N)NN=Cc1cccc(OCc2cccc(Cl)c2Cl)c1 [Compound 49a, 1-[({3-[(2,3-dichlorophenyl)methoxy]phenyl}methylidene)amino]guanidine acetate] | 1 to 10 | 1 to 10 | 159 to 160 | MIC ([1]; MRSA-III (ST239)): 1 to 10 µg/mL; MIC [4, 6]: 1 to 10 µg/mL |

Continued, in another order:

| MIC ([2]; Escherichia coli strain JM109) [µg/mL] | MIC [3, 5] [µg/mL] | melting point [°C] | Structure (SMILES) | also measured |
| --- | --- | --- | --- | --- |
| 1 to 10 | 1 to 10 | 230 to 233 | Cl.N=C(N)N/N=C/c1cccc(OCc2ccc(Cl)c(Cl)c2)c1Cl [Compound 51h, (E)-Amino(2-(2-chloro-3-((3,4-dichlorobenzyl)oxy)benzylidene)hydrazinyl) methaniminium chloride] | – |
| 1 to 10 | 1 to 10 | 237 to 239 | Cl.N=C(N)N/N=C/c1cccc(OCc2ccc(Cl)cc2)c1Cl [Compound 51c, (E)-Amino(2-(2-chloro-3-((4-chlorobenzyl)oxy)benzylidene)hydrazinyl) methaniminium chloride] | – |
| 32 to 100 | 32 to 100 | 258 to 260 | COc1cccc(COc2cccc(/C=N/NC(=N)N)c2Cl)c1Cl.Cl [Compound 51a, (E)-Amino(2-(2-chloro-3-((2-chloro-3-methoxybenzyl)oxy)benzylidene) hydrazinyl)methaniminium chloride] | – |
